Structures are written as SMILES.

For series [1] the following is noted: at 30° C.; cited from earlier work.
The next series has as its system human skin. The series is described as follows: Mitigation of irritation by inorganic base (inventors' research). It counts as in vivo. The settings on record: as third salt (metal oxide).

Consider `[O]=[Zn]` [zinc oxide], for which the water solubility in series [1] was 1.6 µg/mL. Also, the mitigating irritation result in the series with human skin is given as “ineffective”.

These data come from US10342749B2, “Antiperspirant compositions comprising alums” (Conopco, Inc., priority 2014, dated 2019).
